This is an account of results in patent US20090110671A1, “AGENT FOR ENHANCHING THE PRODUCTION OF COLLAGEN AND IT'S USE” (priority 2005, published 2009).

One experiment deals with NHDF cells. The experiment is described as follows: Experiment 3: collagen production in NHDF cells, α,α-trehalose and saccharide derivatives with or without AA-2G. It counts as cell-based, human. The note with it: relative to AA-2G = 100. Here is the method:
Based on the confirmation that α,α-trehalose has an action of enhancing the collagen production by L-ascorbic acid, it was experimented as follows to confirm whether saccharide derivatives of α,α-trehalose have such a similar action and effect. Test solutions were prepared by dissolving in D-MEM medium any one of AA-2G, hydrous crystalline α,α-trehalose, a reagent grade specimen with a purity of at least 98%, commercialized by Hayashibara Biochemical Laboratories Inc., Okayama, Japan; “HALLODEX”, a product name of a syrup of saccharide derivatives of α,α-trehalose, having a solid content of about 75% and containing, on a dry solid basis, about 53% of α-maltosyl α,α-trehalose and about 5% of other saccharide derivatives of α,α-trehalose in total, to give final concentrations of 50 μM of AA-2G and 15.0 mg/ml of saccharides. As a control, test solutions were prepared by dissolving in D-MEM medium either of the above hydrous crystalline α,α-trehalose, α-maltosyl α,α-trehalose, or syrup of saccharide derivatives of α,α-trehalose to give a final concentration of 15.0 mg/ml. The medium admixed with the syrup containing saccharide derivatives of α,α-trehalose was adjusted to give a concentration of 15.0 mg/ml of saccharide derivatives of α,α-trehalose. The culture of NHDF cells and the quantification of collagen-production level thereof were carried out similarly as in Experiment 1. The results are in Table 3, where the values are expressed with relative values in terms of the collagen production level of NHDF cells, being regarded as 100, when cultured in D-MEM medium containing AA-2G.

The subject of experiment [1] is NHDF cells (normal human dermal fibroblast cell). Description: Experiment 1: collagen production in NHDF cells (Sircol kit), α,α-trehalose with AA-2G. The note with it: relative to AA-2G = 100. In kind it is cell-based. The method, then:
Using “fibrocell NHDF”, a normal human dermal fibroblast cell, commercialized by Kurashiki Spinning Co., Ltd., Okayama, Japan (abbreviated as “NHDF cells”, hereinafter), experiment for studying the influence of α,α-trehalose on the collagen production by L-ascorbic acids was conducted based on the method described in Bioscience, Biotechnology, and Biochemistry, Vol. 68, No. 4, pp. 767-773, 2004. The method is outlined below: Test solutions were prepared by dissolving L-ascorbic acid 2-glucoside, a reagent grade specimen commercialized by Hayashibara Biochemical Laboratories Inc., Okayama, Japan (may be abbreviated as “AA-2G”, hereinafter), and α,α-trehalose, a reagent grade specimen commercialized by Hayashibara Biochemical Laboratories Inc., Okayama, Japan, in Dulbecco […] essential medium containing 10% (v/v) fetal calf serum and an antibiotic (abbreviated as “D-MEM”, hereinafter) to give a final concentration of 50 μM/ml of AA-2G and a final concentration of 7.5, 15 or 30 mg/ml of α,α-trehalose. NHDF cells, which had been successively cultured in D-MEM medium, were collected, re-suspended in a fresh preparation of D-MEM medium, inoculated to 96-well microplates at a cell concentration of 2.5×10^4 cells/200 μl/well, and cultured for 24 hours. Thereafter, the supernatants of the cultures were removed by sucking, and further cultured for five days after addition of any of the test solutions in a volume of 200 μl/well. As controls, the cells, which had been cultured for 24 hours, were further cultured for five days after addition of 200 μl/well of D-MEM medium, D-MEM medium supplemented with α,α-trehalose at a concentration of 30 mg/ml, or D-MEM medium supplemented with AA-2G at a concentration of 50 μM/ml. After completion of culturing, the supernatants of the cultures were removed by sucking, admixed with 50 μl/well of 1 M acetic acid solution containing 1 mg/ml of pepsin, and shaken for four hours to solubilize collagen adhered to the cell surfaces, followed by quantifying the content of collagen accumulated in the cells using “Sircol Collagen Quantification Kit”, commercialized by Biocolor Ltd. These control and test solutions were respectively experimented with three wells, followed by calculating a mean value for collagen-production levels in the wells. All the cultures of the NHDF cells were conducted in a 5% (v/v) CO2 incubator. The results are in Table 1 where the values are expressed with relative values in terms of the collagen-production level of NHDF cells, which had been cultured in D-MEM medium containing AA-2G, being regarded as 100.

Take `OC[C@H]1O[C@H](O[C@H]2O[C@H](CO)[C@@H](O)[C@H](O)[C@H]2O)[C@H](O)[C@@H](O)[C@@H]1O` [α,α-trehalose]: the Collagen-production level was determined as 227 in the experiment on NHDF cells (saccharide 15.0 mg/ml + 50 μM AA-2G); 40 in the experiment with NHDF cells (saccharide 15.0 mg/ml, AA-2G not added); 150 in experiment [1] (α,α-trehalose 7.5 mg/ml + 50 μM AA-2G); 217 in experiment [1] (α,α-trehalose 15.0 mg/ml + 50 μM AA-2G); 264 in experiment [1] (α,α-trehalose 30.0 mg/ml + 50 μM AA-2G); 41 in experiment [1] (α,α-trehalose 30.0 mg/ml in D-MEM, no AA-2G).
